Calls of active or inactive are those of the source. The calls are words filed in the database; no cut-off is given here.
How the values were obtained:
[1] = target: T1, L-cysteine:1D-myo-inositol 2-amino-2-deoxy-alpha-D-glucopyranoside ligase (Mycobacterium tuberculosis) (UniProt P9WJM9); experiment: Binding affinity to Mycobacterium tuberculosis recombinant MBP-tagged MshC by STD-NMR analysis
T1 sequence (whole entry): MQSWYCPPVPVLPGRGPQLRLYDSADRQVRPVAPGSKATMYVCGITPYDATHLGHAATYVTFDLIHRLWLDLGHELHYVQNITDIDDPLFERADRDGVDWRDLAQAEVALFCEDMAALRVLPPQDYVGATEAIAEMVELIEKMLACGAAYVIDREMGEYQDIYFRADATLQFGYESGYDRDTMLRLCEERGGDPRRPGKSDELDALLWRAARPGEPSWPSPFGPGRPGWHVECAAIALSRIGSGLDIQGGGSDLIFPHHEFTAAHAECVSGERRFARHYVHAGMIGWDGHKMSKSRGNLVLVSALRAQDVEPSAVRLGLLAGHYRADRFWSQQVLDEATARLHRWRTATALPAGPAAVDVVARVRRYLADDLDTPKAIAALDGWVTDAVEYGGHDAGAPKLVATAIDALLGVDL

[2] = target: T2, L-cysteine:1D-myo-inositol 2-amino-2-deoxy-alpha-D-glucopyranoside ligase (Mycobacterium tuberculosis, UniProt P9WJM9); experiment: Binding affinity to Mycobacterium tuberculosis recombinant MBP-tagged MshC by isothermal titration calorimetry assay
T2 sequence (P9WJM9 whole entry): T1 sequence (whole entry)

[3] = target: T2, L-cysteine:1D-myo-inositol 2-amino-2-deoxy-alpha-D-glucopyranoside ligase; experiment: Inhibition of Mycobacterium tuberculosis recombinant MBP-tagged MshC assessed as formation of fluorescently labeled Cys-GlcN-Ins by HPLC
[4] = target: T1, L-cysteine:1D-myo-inositol 2-amino-2-deoxy-alpha-D-glucopyranoside ligase (Mycobacterium tuberculosis); experiment: Binding affinity to Mycobacterium tuberculosis recombinant MBP-tagged MshC by transferred NOESY analysis

SMILES	Activity [1]	Kd [2] [µM]	IC50 [3] [µM]	Activity [4]
Nc1ncnc2c1ncn2[C@@H]1O[C@H](COS(=O)(=O)NC(=O)[C@@H](N)CS)[C@@H](O)[C@H]1O	inactive	0.0485	0.05	
N[C@H]1CCC[C@H]1C(=O)O			> 4000	
C[C@@H]1C[C@H](C)C[C@H](C)[C@@H](O)CC(=O)O[C@H]([C@@H]2CCC[C@H]2C(=O)O)C/C=C/C=C(/C#N)[C@H](O)[C@@H](C)C1 [BORRELIDIN]			> 2000	
Nc1ncnc2c1ncn2[C@@H]1O[C@H](COS(=O)(=O)NC(=O)[C@@H](N)CC(=O)O)[C@@H](O)[C@H]1O	inactive		1200	inactive
Nc1ncnc2c1ncn2[C@@H]1O[C@H](COS(=O)(=O)NC(=O)[C@@H](N)CO)[C@@H](O)[C@H]1O			5000	
C[C@@H]1Cc2c(Cl)cc(C(=O)N[C@@H](Cc3ccccc3)C(=O)O)c(O)c2C(=O)O1 [3R14S-OCHRATOXIN A]			2500	
C/C(=C\C(=O)OCCCCCCCCC(=O)O)C[C@@H]1OC[C@H](C[C@@H]2O[C@H]2[C@@H](C)[C@H](C)O)[C@@H](O)[C@H]1O [MUPIROCIN]			> 5000	
